Experimental data: US7727550B2, “Biologically active native biomatrix composition” (The UAB Research Foundation, priority 2003, dated 2010)

Key:
[1] = tested on: human umbilical vascular endothelial cells (HUVEC); test: HUVEC culture on two-dimensional biomatrix environments; type: cell-based; conditions: FGF 15 ng/ml, two-dimensional HuBiogel matrix
Procedure: […] The specific morphological changes in the monolayer HUVEC cultures was examined after 72 hrs incubation on each biomatrix environment. HUVECs cultured on plastic or purified collagen I grew poorly (<60% viability). […] Tubular capillary formation is confirmed by cross-sectional electron microscopy showing distinct lumen.

HUVEC = HUVEC migration and differentiation in three-dimensional HuBiogel disc culture system; type: cell-based, human; conditions: FGF 60 ng/ml added day 0, 5 mg/ml HuBiogel disc, 50 um pore size
Procedure: Endothelial cells were cultured under standard conditions. On day 0, FGF (60 ng/ml) was added to the culture and incubation continued. At the indicated times, cell morphology was examined and documented. […] There is no differentiation of the cells until the day 5-day 7 time period. After day 7, obvious differentiation as indicated by sprout formation/capillary formation can be seen. […] Such a temporally discrete timing of the activation migration and differentiation steps make the use of this system ideal for studying the biochemical mechanisms involved in each step, as well as isolating potential inhibitors of the mechanisms identified. This time dependent, temporally isolated sequence of events is in contrast to that seen with Matrigel, where differentiation events occur rapidly in the absence of added growth factors and/or growth stimulants.

[2] = tested on: mesenchymal stem cells (MSC); test: Mesenchymal stem cell culture on HuBiogel; type: cell-based; conditions: NGF 15 ng/ml
Procedure: Other cell type may also be grown on HuBiogel™ matrices, with the above being exemplary in nature only. Theses other cell types include neurons, hepatocytes, sertoli cells and the like. For Example, FIGS. 11A and B show glioma cells cultured on HuBiogel™ containing matrices. […] FIGS. 12A and B show mesenchymal stem cells (MSC) cells cultured on HuBiogel™ in the presence (FIG. 12B) and absence of 15 ng/ml NGF (FIG. 12A).

Row | Substance | HUVEC differentiation on HuBiogel enriched with growth factor [1] | growth factor induced HUVEC activation, migration and differentiation (HUVEC) | neuronal differentiation of MSC on HuBiogel [2]
1 | FGF: fibroblast growth factor, purified angiogenic factor added to HuBiogel | rapid formation of tubule-like structures | induced a time dependent series of cellular activation, migration and differentiation steps | 
2 | NGF: nerve growth factor |  |  | neuronal differentiation occurred only in the presence of NGF
